From patent US20240252677A1, “ONE-COMPONENT DELIVERY SYSTEM FOR NUCLEIC ACIDS” (The Trustees of the University of Pennsylvania, priority 2021, published 2024) come the findings set out here.

Series [1] is described as follows: pKa measurements of individual IAJD molecules by titration. Format: physicochemical. Conditions: ethanol saturated with NaCl, titrated with 0.1 M aqueous HCl; individual IAJD molecules, titration. In outline: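 Compound dissolved at 1.5 mg/mL in NaCl-saturated ethanol and titrated with 0.1 M HCl in 7.5 μL steps, pH read by electrode after each addition. pKa taken from the half-equivalence point.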

Series [2] deals with spleen. Put plainly: In vivo mRNA delivery, IVIS imaging of organs: spleen. On the set-up: species or system mice; key to Organs with luminescence: spleen: strong: Strong meant the luminescence intensity in that organ was relatively high, compared to other organs; weak: Weak meant the luminescence intensity in that organ was relatively low, compared to other organs. The conditions noted are these: Table 17; mice, IVIS, 4-6 h after injection; intensity relative to other organs.

Series [3] deals with HEK293T cells. The experiment in a line: In vitro Luc-mRNA transfection, luciferase luminescence expression in HEK293T cells. The class given is cell-based, human. On the set-up: unit not given here. The conditions noted are these: Table 16; HEK 293T cells, 125 ng/well, n=3. The essentials: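 HEK293T cells were transfected with nucleoside-modified firefly luciferase mRNA at 125 ng/well delivered in the test particles. TransIT and MC3-based LNPs at equal mRNA dose served as comparators. After 24 h (18-20 h in some runs) at 37° C the cells were lysed, and luciferase luminescence was read on a luminometer, in triplicate.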

Series [4] in a line: Stability of DNPs by DLS after storage at 5° C. The class given is physicochemical. Details: key to Original size distribution type (DLS curve) / Size distribution type (DLS curve): U: DLS curve showed unimodal size distribution; B: DLS curve showed bimodal size distribution; M: DLS curve showed multimodal size distribution. Conditions: for pH Sample: DNPs: IAJD 4.0 mg/mL + Luc-mRNA 0.1 mg/mL, injection in acetate buffer pH 4.00; for PDI / Size (d, nm) / Original size distribution type (DLS curve): IAJD 4.0 mg/mL + Luc-mRNA 0.1 mg/mL; for PDI / Size (d, nm): acetate buffer; for Original size distribution type (DLS curve): before storage, acetate buffer pH 4.00. The procedure: The stability of the DNPs as assayed by DLS. All the samples are prepared in acetate buffer. The stabilities of the constructs were ranked: Excellent (in bold)—the original sizes and distribution remains almost the same after storage; Good—the original relatively big sizes became smaller or broad size distribution became narrower; Not stable—the original relatively big sizes or broad size distribution remained almost the similar level, or the original relatively small sizes became bigger or narrow size distribution became broader.

The test system of series [5] is lung. The experiment in a line: In vivo mRNA delivery, IVIS imaging of organs: lung. On the set-up: species or system mice; key to Organs with luminescence: lung: strong: Strong meant the luminescence intensity in that organ was relatively high, compared to other organs; weak: Weak meant the luminescence intensity in that organ was relatively low, compared to other organs. The conditions noted are these: Table 17; mice, IVIS, 4-6 h after injection; intensity relative to other organs.

SMILES strings stand for the structures.

On to `CCCCCCCCCCCCCCCOc1cc(COC(=O)CCCN2CCN(CCO)CC2)cc(OCC(CC)CCCC)c1` (stereo not drawn) [IAJD 136, 3-((2-Ethylhexyl)oxy)-5-(pentadecyloxy)benzyl 4-(4-(2-hydroxyethyl)piperazin-1-yl)butanoate], for which the pKa (in general, the negative logarithm of the acid dissociation constant) in series [1] is 6.5. The “Organs with luminescence: spleen” value in series [2] is listed as “spleen (strong)”. In series [3], the Luminescence was 283,656. In addition, in series [4], the “pH Sample” value was 4.57 and the “Original size distribution type (DLS curve)” value is “(U)”. In addition, in series [4] (after 27 days at 5° C.), the “Size distribution type (DLS curve)” value was “(U)”; the PDI is given as 0.296; the “Size (d, nm)” value is 153 nm. Also, the “Organs with luminescence: lung” value in series [5] is on record as “Lung (weak),”.
In series [1], `CCCCCCCCCCCCCOc1cc(COC(=O)CCCN2CCN(C)CC2)cc(OCC(CC)CCCC)c1` (stereo not drawn) [IAJD 161, 3-((2-Ethylhexyl)oxy)-5-(tridecyloxy)benzyl 4-(4-methylpiperazin-1-yl)butanoate] returned a pKa of 6.38. For the same molecule, in series [2], the “Organs with luminescence: spleen” value was “spleen (strong)”. The Luminescence in series [3] amounted to 128. Besides, in series [4], the “pH Sample” value was found to be 4.97 and the “Original size distribution type (DLS curve)” value was “(U)”. Also, in series [4] (after 21 days at 5° C.), the “Size distribution type (DLS curve)” value is “(U)”; the PDI amounted to 0.226; the “Size (d, nm)” value is 125 nm. For the same molecule, the “Organs with luminescence: lung” value in series [5] is reported as “Lung (weak),”.
In series [1], `CCCCCCCCCCCCCCOc1cc(COC(=O)CCCN2CCN(CCO)CC2)cc(OCCCCCCCCCCCCC)c1` [IAJD 172, 3-(Tetradecyloxy)-5-(tridecyloxy)benzyl 4-(4-(2-hydroxyethyl)piperazin-1-yl)butanoate] gave a pKa of 6.03. In addition, in series [2], the “Organs with luminescence: spleen” value is listed as “spleen (strong)”. Further, the Luminescence in series [3] was 166,377. Further, in series [4], the “pH Sample” value is recorded as 4.84 and the “Original size distribution type (DLS curve)” value is “(U)”. For the same molecule, in series [4] (after 14 days at 5° C.), the “Size distribution type (DLS curve)” value is “(U)”; the PDI was determined as 0.219; the “Size (d, nm)” value was 225 nm. Also, in series [5], the “Organs with luminescence: lung” value is on record as “Lung (weak),”.
For the molecule `CCCCCCCCCCCCCCCCOc1cc(COC(=O)CCCN2CCN(CCO)CC2)cc(OCCCCCCCCCCCCCCC)c1` [IAJD 150, 3-(Hexadecyloxy)-5-(pentadecyloxy)benzyl 4-(4-(2-hydroxyethyl)piperazin-1-yl)butanoate], the pKa in series [1] stood at 6.65. In addition, the “Organs with luminescence: spleen” value in series [2] is given as “spleen (strong)”. Also, in series [3], the Luminescence is listed as 134,225. For the same molecule, in series [4], the “pH Sample” value turned out to be 4.51 and the “Original size distribution type (DLS curve)” value was “(B)”. For the same molecule, in series [4] (after 19 days at 5° C.), the “Size distribution type (DLS curve)” value is reported as “(U)”; the PDI was 0.314; the “Size (d, nm)” value was 308 nm. Further, in series [5], the “Organs with luminescence: lung” value is “Lung (weak),”.
Regarding `CCCCCCCCCCCCCCOc1cc(COC(=O)CCCN2CCN(C)CC2)cc(OCCCCCCCCCCCCC)c1` [IAJD 171, 3-(Tetradecyloxy)-5-(tridecyloxy)benzyl 4-(4-methylpiperazin-1-yl)butanoate], the pKa in series [1] was found to be 6.16. Moreover, in series [2], the “Organs with luminescence: spleen” value is “spleen (strong)”. The Luminescence in series [3] is given as 1,436. In series [4], the “pH Sample” value worked out at 4.88 and the “Original size distribution type (DLS curve)” value was “(U)”. Further, in series [4] (after 21 days at 5° C.), the “Size distribution type (DLS curve)” value was “(U)”; the PDI came out at 0.277; the “Size (d, nm)” value is 175 nm. Further, the “Organs with luminescence: lung” value in series [5] is “Lung (weak),”.
Turning to `CCCCCCCCCCCCCCCOc1cc(COC(=O)CCCN2CCN(C)CC2)cc(OCCCCCCCCCCC)c1` [IAJD 118, 3-(Pentadecyloxy)-5-(undecyloxy)benzyl 4-(4-methylpiperazin-1-yl)butanoate], the pKa in series [1] was determined as 6.33. The “Organs with luminescence: spleen” value in series [2] is “spleen (strong)”. Besides, the Luminescence in series [3] was 568,354. Further, in series [4], the “pH Sample” value was determined as 4.43 and the “Original size distribution type (DLS curve)” value is recorded as “(B)”. In series [4] (after 75 days at 5° C.), the “Size distribution type (DLS curve)” value is recorded as “(B)”; the PDI is listed as 0.262; the “Size (d, nm)” value amounted to 105 nm. Moreover, in series [5], the “Organs with luminescence: lung” value is given as “Lung (weak),”.
`CCCCCCCCCCCCCCCCCCOc1cc(COC(=O)CCCN2CCN(CCO)CC2)cc(OCCCCCCCCCCC)c1` [IAJD 128, 3-(Octadecyloxy)-5-(undecyloxy)benzyl 4-(4-(2-hydroxyethyl)piperazin-1-yl)butanoate] had a pKa in series [1] of 6.68. Besides, the “Organs with luminescence: spleen” value in series [2] is “spleen (strong)”. Besides, the Luminescence in series [3] was 449,311. Also, in series [4], the “pH Sample” value is listed as 4.40 and the “Original size distribution type (DLS curve)” value is “(B)”. For the same molecule, in series [4] (after 70 days at 5° C.), the “Size distribution type (DLS curve)” value was “(B)”; the PDI was found to be 0.459; the “Size (d, nm)” value is 210 nm. For the same molecule, in series [5], the “Organs with luminescence: lung” value is reported as “Lung (weak),”.
In series [1], `CCCCCCCCCCCCCCCCOc1cc(COC(=O)CCCN2CCN(C)CC2)cc(OCCCCCCCCCCCCC)c1` [IAJD 173, 3-(Hexadecyloxy)-5-(tridecyloxy)benzyl 4-(4-methylpiperazin-1-yl)butanoate] displayed a pKa of 5.91. Moreover, the “Organs with luminescence: spleen” value in series [2] is “spleen (weak)”. In series [3], the Luminescence was 2,302. Besides, in series [4], the “pH Sample” value came to 4.79 and the “Original size distribution type (DLS curve)” value is “(U)”. In addition, in series [4] (after 21 days at 5° C.), the “Size distribution type (DLS curve)” value is “(B)”; the PDI is listed as 0.376; the “Size (d, nm)” value was 132 nm. For the same molecule, the “Organs with luminescence: lung” value in series [5] is on record as “Lung (weak),”.
Consider `CCCCCCCCCCCCCCCCCCOc1cc(COC(=O)CCCN2CCN(CCO)CC2)cc(OCCCCCCCCCCCCCCC)c1` [IAJD 154, 3-(Octadecyloxy)-5-(pentadecyloxy)benzyl 4-(4-(2-hydroxyethyl)piperazin-1-yl)butanoate], for which the pKa in series [1] turned out to be 6.48. In addition, the “Organs with luminescence: spleen” value in series [2] was “spleen (strong)”. The Luminescence in series [3] was 17,871. Also, in series [4], the “pH Sample” value was found to be 4.47 and the “Original size distribution type (DLS curve)” value is listed as “(B)”. Besides, in series [4] (after 35 days at 5° C.), the “Size distribution type (DLS curve)” value is given as “(B)”; the PDI amounted to 0.471; the “Size (d, nm)” value is 372 nm. Further, in series [5], the “Organs with luminescence: lung” value was “Lung (weak),”.
Molecule `CCCCCCCCCCCOc1cc(COC(=O)CCCN2CCN(C)CC2)cc(OCCCCCCCCCC)c1` [IAJD 114, 3-(Decyloxy)-5-(undecyloxy)benzyl 4-(4-methylpiperazin-1-yl)butanoate] displayed a pKa in series [1] of 6.43. Besides, the “Organs with luminescence: spleen” value in series [2] is given as “spleen (strong)”. Further, in series [3], the Luminescence is listed as 1,580. In addition, in series [4], the “pH Sample” value was found to be 4.46 and the “Original size distribution type (DLS curve)” value was “(U)”. In addition, in series [4] (after 75 days at 5° C.), the “Size distribution type (DLS curve)” value is given as “(B)”; the PDI is 0.369; the “Size (d, nm)” value was determined as 107 nm. The “Organs with luminescence: lung” value in series [5] is recorded as “Lung (weak),”.
Consider `CCCCCCCCCCCCCCCOc1cc(COC(=O)CCCN2CCN(C)CC2)cc(OCC(CC)CCCC)c1` (stereo not drawn) [IAJD 135, 3-((2-Ethylhexyl)oxy)-5-(pentadecyloxy)benzyl 4-(4-methylpiperazin-1-yl)butanoate], for which the pKa in series [1] was found to be 6.32. Also, the “Organs with luminescence: spleen” value in series [2] is “spleen (weak)”. Moreover, the Luminescence in series [3] is on record as 432. For the same molecule, in series [4], the “pH Sample” value is listed as 4.95 and the “Original size distribution type (DLS curve)” value was “(U)”. Further, in series [4] (after 27 days at 5° C.), the “Size distribution type (DLS curve)” value was “(U)”; the PDI was 0.278; the “Size (d, nm)” value is reported as 92 nm. For the same molecule, the “Organs with luminescence: lung” value in series [5] is listed as “Lung (weak),”.
